These results are taken from PubChem BioAssay (NCI).

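Where inhibition never reached the appropriate level, the endpoint shown equals the highest concentration tested. Otherwise, values were interpolated linearly from a five-concentration, 48-hour dose response in 96-well plates. The concentration for full growth arrest is given as TGI.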 A value given as a limit tells only on which side of the number the result lay.

Among the test systems are SF-295 CNS; SNB-78 CNS; XF 498 CNS; DMS 114 small cell lung; CAKI-1 renal; M19-MEL melanoma; OVCAR-4 ovarian; LXFL 529 NSCLC; MOLT-4 leukemia; HOP-18 NSCLC; T-47D breast; HS 578T breast; PC-3 prostate.
What all share (assay): NCI-60 cell line screen, 48 h

For the compound `CC(C)C(Nc1c2ccccc2[n+](C)c2ccccc12)C(=O)O` (stereo unspecified), the TGI with SF-295 CNS, in the experiment on SNB-78 CNS, in the experiment on XF 498 CNS, in the experiment with DMS 114 small cell lung, with CAKI-1 renal and with M19-MEL melanoma was above 100 µM in each case. Also, the TGI in the experiment with OVCAR-4 ovarian, in the experiment on LXFL 529 NSCLC, in the experiment with MOLT-4 leukemia and in the experiment with HOP-18 NSCLC was above 100 µM throughout.

As to `Cc1cc(C)c(C2=NO[C@@H]3[C@H]2C(=O)C=C2N(Cc4ccccc4)CCO[C@@]23O)c(C)c1`, the TGI in the experiment on SF-295 CNS, in the experiment with SNB-78 CNS, with XF 498 CNS, in the experiment on CAKI-1 renal, in the experiment on M19-MEL melanoma and in the experiment on OVCAR-4 ovarian was above 100 µM each time. Besides, the TGI in the experiment with MOLT-4 leukemia and in the experiment on HOP-18 NSCLC was above 100 µM throughout.

Turning to `O=c1c2ccccc2n2nnc3ccc(NCCNCCO)c1c32`, the TGI was 9.82 µM in the experiment with SF-295 CNS; 29.1 µM in the experiment with T-47D breast; 27.6 µM in the experiment with SNB-78 CNS; 25.2 µM in the experiment with XF 498 CNS; 13.4 µM in the experiment with DMS 114 small cell lung; 10 µM in the experiment with CAKI-1 renal. The TGI is 8.61 µM in the experiment with M19-MEL melanoma; 6.36 µM in the experiment on HS 578T breast; 6.34 µM in the experiment on OVCAR-4 ovarian; 14.2 µM in the experiment on LXFL 529 NSCLC; 9.64 µM with MOLT-4 leukemia; 4.89 µM in the experiment on PC-3 prostate. For the same compound, the TGI with HOP-18 NSCLC amounted to 8.67 µM.

As to `Nc1ncnc2c1ncn2C1C(O)C=C(CO)C1O` (stereo unspecified), the TGI with SF-295 CNS was above 625 µM; in the experiment on SNB-78 CNS it was above 625 µM; in the experiment with XF 498 CNS, below 0.0625 µM; in the experiment with DMS 114 small cell lung it was above 625 µM; with CAKI-1 renal, above 625 µM; in the experiment on M19-MEL melanoma it was above 625 µM. Moreover, the TGI in the experiment on OVCAR-4 ovarian and with HOP-18 NSCLC was above 625 µM throughout.

On to `COc1cc(CNc2nc3c(NC(C)=O)cc(C(F)(F)F)cc3nc2-c2ccccc2)cc(OC)c1OC`, for which the TGI in the experiment on SF-295 CNS, in the experiment on XF 498 CNS, with DMS 114 small cell lung, in the experiment on CAKI-1 renal, in the experiment on M19-MEL melanoma and in the experiment with OVCAR-4 ovarian was above 100 µM throughout. Also, the TGI in the experiment on LXFL 529 NSCLC and in the experiment on MOLT-4 leukemia was above 100 µM in each case.

As to `COc1cc2ccc(C(C)NCC#N)cc2cc1OC` (stereo unspecified), the TGI in the experiment on SF-295 CNS, with T-47D breast, in the experiment with CAKI-1 renal, in the experiment on HS 578T breast, with OVCAR-4 ovarian and in the experiment on MOLT-4 leukemia was above 100 µM each time. For the same compound, in the experiment on PC-3 prostate, the TGI is above 100 µM.

As for `CC(=O)N1CN2C(=O)CCC2c2cc(C)ccc21` (stereo unspecified), the TGI in the experiment with SF-295 CNS, in the experiment with T-47D breast, in the experiment with CAKI-1 renal, in the experiment with HS 578T breast, in the experiment with OVCAR-4 ovarian and with MOLT-4 leukemia was above 100 µM throughout. For the same compound, in the experiment on PC-3 prostate, the TGI was above 100 µM.
